Legend:
CDK2 (human) [1] = molecular target: CDK2 (human) (UniProt P24941); assay: Cell-Based Assay; settings: rko
CDK2 (human) [2] = molecular target: CDK2 (human) (UniProt P24941); assay: Cell-Based Assay
CDK2 (human) [3] = molecular target: CDK2 (human) (UniProt P24941); assay: Cell-Based Assay; settings: hdf
CDK2 = CDK2 (UniProt P24941); assay: Enzyme Assay

Compound	IC50 (CDK2 (human) [1]) [nM]	IC50 (CDK2 (human) [2]; hdf-3) [nM]	IC50 (CDK2 (human) [3]) [nM]	IC50 (CDK2) [nM]	IC50 (CDK2 (human) [2]; hdf) [nM]	IC50 (CDK2 (human) [2]; rko) [nM]	IC50 (CDK2 (human) [2]; mes/sa) [nM]	IC50 (CDK2 (human) [2]; mda-mb-468) [nM]
CCC(C)Cc1cccc2c1C(=NNc1ccc(S(N)(=O)=O)cc1)C(=O)N2 (stereo not given)	1100 to 5000	1100 to 5000	> 5000	1 to 10	–	–	–	–
CNS(=O)(=O)Cc1ccc(NN=C2C(=O)Nc3cc(C)c(O)c(C)c32)cc1	100 to 500	1100 to 5000	> 5000	51 to 100	600 to 1000	100 to 500	> 5000	–
CS(=O)(=O)Cc1ccc(N/C=C2\C(=O)Nc3ccc4ncsc4c32)cc1	1100 to 5000	1100 to 5000	> 5000	11 to 50	> 5000	> 5000	1100 to 5000	–
NS(=O)(=O)c1ccc(NN=C2C(=O)Nc3ccc(-c4cnco4)cc32)cc1	600 to 1000	600 to 1000	> 5000	1 to 10	1100 to 5000	600 to 1000	100 to 500	600 to 1000

The remaining lines, values ahead:

IC50 (CDK2 (human) [1]) [nM]	IC50 (CDK2 (human) [2]; hdf-3) [nM]	IC50 (CDK2 (human) [3]) [nM]	IC50 (CDK2) [nM]	IC50 (CDK2 (human) [2]; hdf) [nM]	IC50 (CDK2 (human) [2]; rko) [nM]	IC50 (CDK2 (human) [2]; mes/sa) [nM]	IC50 (CDK2 (human) [2]; mda-mb-468) [nM]	Compound
1100 to 5000	1100 to 5000	> 5000	1 to 10	> 5000	> 5000	–	–	CNS(=O)(=O)Cc1ccc(NN=C2C(=O)Nc3ccc4ncccc4c32)cc1
1100 to 5000	> 5000	> 5000	1 to 10	–	1100 to 5000	> 5000	> 5000	CN(C)S(=O)(=O)c1ccc(N/C=C2\C(=O)Nc3ccc(-c4cnco4)cc32)cc1
> 5000	> 5000	> 5000	11 to 50	> 5000	–	–	1100 to 5000	O=C1Nc2ccc3ncsc3c2/C1=C/Nc1ccc2nn[nH]c2c1
